# In patent publication US9512128B2 (BAYER CROPSCIENCE AG, priority 2012, dated 2016):
# Where two headings read alike, the source gives them in different places.
# Key:
# [1] = tested on: greenhouse red spider mite (Tetranychus urticae); assay: Tetranychus urticae spray test, OP-resistant (TETRUR); type: in vivo; conditions: application rate 500 g/ha, after 6 days, bean leaf discs
# Procedure: 4. Tetranychus urticae Spray Test, OP-Resistant (TETRUR)
# • Solvents: 78.0 parts by weight of acetone • 1.5 part by weight of dimethylformamide • Emulsifier: 0.5 part by weight of alkylaryl polyglycol ether
# To produce a suitable preparation of active compound, 1 part by weight of active compound is mixed with the stated amounts of solvents and emulsifier, and the concentrate is diluted with emulsifier-containing water to the desired concentration.
# Discs of bean leaves (Phaseolus vulgaris) which are infested by all stages of the greenhouse red spider mite (Tetranychus urticae) are sprayed with an active compound preparation of the desired concentration.
# After 6 days, the efficacy in % is determined. 100% means that all of the spider mites have been killed; 0% means that none of the spider mites have been killed.
# [2] = tested on: southern root-knot nematode (Meloidogyne incognita); assay: Meloidogyne incognita test (MELGIN); type: in vivo; conditions: application rate 20 ppm, after 14 days, lettuce
# Procedure: 5. Meloidogyne incognita Test (MELGIN) • Solvent: 125.0 parts by weight of acetone To prepare a suitable active compound preparation, 1 part by weight of active compound is mixed with the stated amount of solvent and the concentrate is diluted with water to the desired concentration. Vessels are filled with sand, active compound solution, an egg/larvae suspension of the southern root-knot nematode (Meloidogyne incognita) and lettuce seeds. The lettuce seeds germinate and the plants develop. On the roots, galls are formed. After 14 days, the nematicidal effect in % is determined by the formation of galls. 100% means that no galls have been found; 0% means that the number of galls on the treated plants corresponds to the untreated control.
# [3] = log P by HPLC on reversed-phase columns (C 18), EEC directive 79/831 Annex V.A8; type: physicochemical; conditions: for logP[a]: method [a]; for logP[b]: method [b]; for chromatographic logP: reversed-phase C18 HPLC column
# In short: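 Measured by reversed-phase C18 HPLC (LC-MS) with a linear 10→95% acetonitrile gradient. Acidic: pH 2.7, 0.1% formic acid. Neutral: pH 7.8, 0.001 M ammonium bicarbonate.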
SMILES,efficacy in % (spider mites killed) [1],nematicidal effect in % (formation of galls) [2],logP[a] [3],logP[b] [3],also measured
Cc1cc(F)c(-n2cnc3c(C)nsc3c2=O)cc1[S+]([O-])CC(F)(F)F (stereo not shown) [Compound 181],100%,90%,,,
Cc1cc(F)c(-n2c(C)nc3snc(C)c3c2=O)cc1[S+]([O-])CC(F)(F)F (stereo not shown) [Compound 210],100%,100%,,,
Cc1nc2c(=O)n(-c3cc(SCC(F)(F)F)c(C)cc3F)cnc2s1 [Compound 70],,90%,2.80,2.74,
CCn1cnc2c(=O)n(-c3cc([S+]([O-])CC(F)(F)F)c(C)cc3F)cnc21 (racemic) [Compound 54],100%,,1.60,1.59,
Cc1cc(F)c(-n2c(C)nc3scnc3c2=O)cc1[S+]([O-])CC(F)(F)F (stereo not shown) [Compound 68],90%,,1.72,1.70,
Cc1cc(F)c(-n2c(C)nc3c(cnn3CC(F)(F)F)c2=O)cc1SCC(F)(F)F [Compound 20],90%,,3.50,3.44,
O=c1c2ccsc2ncn1-c1ccc(Cl)c([S+]([O-])CC(F)(F)F)c1 (stereo not shown) [Compound 87],,100%,2.20,2.17,
Cc1cc(F)c(-n2c(C(F)(F)F)nc3nn(C)cc3c2=O)cc1[S+]([O-])CC(F)(F)F (stereo not shown) [Compound 43],,90%,,,
Cc1cc(C)c([S+]([O-])CC(F)(F)F)cc1-n1cnc2sccc2c1=O (stereo not shown) [Compound 97],,90%,2.15,2.11,
Cc1cc(C)c([S+]([O-])CC(F)(F)F)cc1-n1cnc2scnc2c1=O (stereo not shown) [Compound 66],90%,,1.6,1.62,
O=c1c2ncsc2ncn1-c1cc(SCC(F)(F)F)c(Cl)cc1Cl [Compound 63],,90%,2.83,2.77,
Cc1cc(C)c(-n2cnc3ncsc3c2=O)cc1SCC(F)(F)F [Compound 76],90%,,2.62,2.59,
Cc1cc(F)c(-n2c(C)nc3cnn(CC4CC4)c3c2=O)cc1SCC(F)(F)F [Compound 168],,90%,,,
Cc1cc(F)c(-n2cnc3c(Cl)csc3c2=O)cc1[S+]([O-])CC(F)(F)F (stereo not shown) [Compound 114],,90%,2.43,2.38,
Cn1ncc2c(=O)n(-c3ccc(C#N)c([S+]([O-])CC(F)(F)F)c3)cnc21 (racemic) [Compound 26],90%,,1.51,1.56,
Cc1cc(C)c(-n2cnc3sccc3c2=O)cc1SCC(F)(F)F [Compound 91],100%,,3.34,3.25,
Cc1ccc(-n2cnc3nsc(C(C)(C)C)c3c2=O)cc1SCC(F)(F)F [Compound 116],90%,,4.05,3.96,
Cc1cc(F)c(-n2cnc3sccc3c2=O)cc1SCC(F)(F)F [Compound 92],100%,,3.22,3.14,
Cc1cc(F)c(-n2c(C(F)(F)F)nc3c(cnn3CC(F)(F)F)c2=O)cc1SCC(F)(F)F [Compound 19],,90%,4.20,4.10,
Cc1cc(F)c(-n2cnc3c(ncn3C)c2=O)cc1SCC(F)(F)F [Compound 52],90%,,2.17,2.11,

SMILES,efficacy in % (spider mites killed) [1],nematicidal effect in % (formation of galls) [2],logP[a] [3],logP[b] [3],also measured
Cc1nn(C)c2ncn(-c3ccc(C(F)(F)F)c([S+]([O-])CC(F)(F)F)c3)c(=O)c12 (racemic) [Compound 32],,90%,2.39,2.34,
"Cc1cc(F)c(-n2nnc3c(cnn3C)c2=O)cc1SCC(F)(F)F [Compound 119, 3-{2-Fluoro-4-methyl-5-[(2,2,2-trifluoroethyl)sulphanyl]phenyl}-7-methyl-3,7-dihydro-4H-pyrazolo[3,4-d][1,2,3]triazin-4-one]",90%,,,,"chromatographic logP ([3]; pH 2.7, acidic range, pH 2.7, 0.1% aqueous formic acid / acetonitrile, read-out: log P[a]): 3.16; chromatographic logP ([3]; pH 2.7, method [a], read-out: logP[a]): 3.16; chromatographic logP ([3]; pH 7.8, method [b], read-out: logP[b]): 3.13; chromatographic logP ([3]; pH 7.8, neutral range, pH 7.8, 0.001 molar aqueous ammonium bicarbonate / acetonitrile, read-out: log P[b]): 3.13"
Cc1cc(F)c(-n2cnc3cnn(C)c3c2=O)cc1SCC(F)(F)F [Compound 38],90%,,2.76,2.76,
Cc1cc(F)c(-n2cnc3c(cnn3CC(F)(F)F)c2=O)cc1[S+]([O-])CC(F)(F)F (racemic) [Compound 18],,90%,2.34,2.33,
Cc1c2c(=O)n(-c3ccc(Cl)c([S+]([O-])CC(F)(F)F)c3)cnc2nn1C (racemic) [Compound 49],,90%,1.78,1.75,
CCc1nc2cnn(C)c2c(=O)n1-c1cc(SCC(F)(F)F)c(C)cc1F [Compound 146],,90%,,,
Cc1cc(F)c(-n2cnc3ccsc3c2=O)cc1[S+]([O-])CC(F)(F)F (stereo not shown) [Compound 113],,90%,2.35,2.31,
Cc1c2c(=O)n(-c3ccc(C(F)(F)F)c(SCC(F)(F)F)c3)cnc2nn1C [Compound 45],,80%,2.70,2.63,
Cc1cc(F)c(-n2c(C)nc3cnn(C)c3c2=O)cc1SCC(F)(F)F [Compound 39],90%,,2.94,2.87,
Cc1cc(F)c(-n2cnc3ccsc3c2=O)cc1SCC(F)(F)F [Compound 108],,90%,3.01,2.90,
Cc1cc(F)c(-n2c(C)nc3scnc3c2=O)cc1SCC(F)(F)F [Compound 64],,90%,2.72,2.70,
CC(C)(C)c1snc2ncn(-c3ccc(Cl)c(SCC(F)(F)F)c3)c(=O)c12 [Compound 117],90%,,4.06,3.97,
Cc1cc(F)c(-n2cnc3c(C)scc3c2=O)cc1SCC(F)(F)F [Compound 219],100%,,,,
Cc1ccc(-n2cnc3cnn(C)c3c2=O)cc1SCC(F)(F)F [Compound 138],100%,,,,
Cc1cc(F)c(-n2cnc3csc(C)c3c2=O)cc1[S+]([O-])CC(F)(F)F (stereo not shown) [Compound 218],90%,,,,
Cc1nc2c(=O)n(-c3cc(SCC(F)(F)F)c(C)cc3F)cnc2s1 [Compound 189],90%,,,,
Cn1ncc2ncn(-c3cc([S+]([O-])CC(F)(F)F)c(Cl)cc3Cl)c(=O)c21 (stereo not shown) [Compound 143],100%,,,,
CCn1ncc2c(=O)n(-c3cc([S+]([O-])CC(F)(F)F)c(C)cc3F)c(C)nc21 (stereo not shown) [Compound 127],100%,,,,
Cc1cc(F)c(-n2nnc3cnn(C)c3c2=O)cc1SCC(F)(F)F [Compound 137],100%,,,,
